# Measurements published in patent publication US10670605B2, “Cysteine reactive probes and uses thereof” (The Scripps Research Institute, priority 2015, dated 2020).
# Tests used:
# Experiment in all cases: Competitive isoTOP-ABPP in situ (fragment-treated cells)
# Assay type in all cases: cell-based
# Conditions in all cases: 200 μM, insitu, 231
# [1] = target: T1, cysteines in MDA-MB-231 and Ramos cells (Homo sapiens, UniProt P22307)
# T1 sequence (P22307 1-547): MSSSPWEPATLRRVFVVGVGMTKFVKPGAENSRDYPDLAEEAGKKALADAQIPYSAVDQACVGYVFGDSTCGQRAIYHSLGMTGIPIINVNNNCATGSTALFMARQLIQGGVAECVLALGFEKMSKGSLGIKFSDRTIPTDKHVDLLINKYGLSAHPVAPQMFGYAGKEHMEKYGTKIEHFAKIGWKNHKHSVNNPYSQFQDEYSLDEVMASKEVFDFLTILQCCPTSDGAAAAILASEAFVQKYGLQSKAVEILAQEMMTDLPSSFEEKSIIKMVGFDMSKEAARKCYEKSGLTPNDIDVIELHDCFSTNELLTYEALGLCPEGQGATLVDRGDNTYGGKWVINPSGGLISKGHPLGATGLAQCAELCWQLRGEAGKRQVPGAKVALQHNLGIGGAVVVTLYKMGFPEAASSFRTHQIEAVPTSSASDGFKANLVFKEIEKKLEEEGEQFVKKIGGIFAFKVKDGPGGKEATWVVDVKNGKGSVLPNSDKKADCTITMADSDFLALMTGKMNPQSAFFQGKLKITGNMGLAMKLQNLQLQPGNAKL
# [2] = target: T2, cysteines in MDA-MB-231 and Ramos cells (Homo sapiens, UniProt Q13155)
# T2 sequence (Q13155 1-320): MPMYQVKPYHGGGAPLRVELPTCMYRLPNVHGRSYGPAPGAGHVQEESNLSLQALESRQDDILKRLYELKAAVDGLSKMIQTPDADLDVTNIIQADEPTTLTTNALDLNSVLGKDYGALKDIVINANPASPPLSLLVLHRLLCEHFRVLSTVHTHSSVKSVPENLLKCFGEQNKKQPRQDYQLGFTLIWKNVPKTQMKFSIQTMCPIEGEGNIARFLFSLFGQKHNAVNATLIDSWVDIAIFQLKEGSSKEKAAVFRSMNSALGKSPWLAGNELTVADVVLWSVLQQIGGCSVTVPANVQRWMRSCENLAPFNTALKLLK
# [3] = target: T3, cysteines in MDA-MB-231 and Ramos cells (Homo sapiens, UniProt P42765)
# T3 sequence (P42765 1-397): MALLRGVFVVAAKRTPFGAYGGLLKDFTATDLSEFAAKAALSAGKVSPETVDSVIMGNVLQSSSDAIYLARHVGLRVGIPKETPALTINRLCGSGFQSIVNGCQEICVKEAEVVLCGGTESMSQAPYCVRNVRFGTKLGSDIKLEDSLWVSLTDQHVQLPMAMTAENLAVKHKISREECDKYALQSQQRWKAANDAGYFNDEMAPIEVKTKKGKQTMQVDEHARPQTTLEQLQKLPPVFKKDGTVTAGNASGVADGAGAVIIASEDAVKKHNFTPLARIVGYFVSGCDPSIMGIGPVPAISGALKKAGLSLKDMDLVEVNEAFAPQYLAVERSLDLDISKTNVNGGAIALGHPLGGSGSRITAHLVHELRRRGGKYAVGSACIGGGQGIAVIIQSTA
# [4] = target: T4, cysteines in MDA-MB-231 and Ramos cells (Homo sapiens, UniProt Q86SX6)
# T4 sequence (Q86SX6 32-157): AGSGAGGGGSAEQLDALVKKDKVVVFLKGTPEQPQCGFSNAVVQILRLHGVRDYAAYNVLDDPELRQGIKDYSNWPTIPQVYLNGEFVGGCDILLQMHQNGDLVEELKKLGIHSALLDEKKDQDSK
# [5] = target: T5, cysteines in MDA-MB-231 and Ramos cells (Homo sapiens, UniProt A6NDU8)
# T5 sequence (A6NDU8 1-294): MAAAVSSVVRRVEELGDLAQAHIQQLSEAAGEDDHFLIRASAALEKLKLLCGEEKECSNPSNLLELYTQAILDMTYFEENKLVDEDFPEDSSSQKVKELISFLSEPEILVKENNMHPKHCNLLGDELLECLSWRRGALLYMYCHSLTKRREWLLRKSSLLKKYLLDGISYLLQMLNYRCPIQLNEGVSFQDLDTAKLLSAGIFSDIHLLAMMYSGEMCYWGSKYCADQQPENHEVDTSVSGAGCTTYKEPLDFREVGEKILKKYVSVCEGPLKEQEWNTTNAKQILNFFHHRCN
# [6] = target: T6, cysteines in MDA-MB-231 and Ramos cells (Homo sapiens, UniProt O75521)
# T6 sequence (O75521 39-394): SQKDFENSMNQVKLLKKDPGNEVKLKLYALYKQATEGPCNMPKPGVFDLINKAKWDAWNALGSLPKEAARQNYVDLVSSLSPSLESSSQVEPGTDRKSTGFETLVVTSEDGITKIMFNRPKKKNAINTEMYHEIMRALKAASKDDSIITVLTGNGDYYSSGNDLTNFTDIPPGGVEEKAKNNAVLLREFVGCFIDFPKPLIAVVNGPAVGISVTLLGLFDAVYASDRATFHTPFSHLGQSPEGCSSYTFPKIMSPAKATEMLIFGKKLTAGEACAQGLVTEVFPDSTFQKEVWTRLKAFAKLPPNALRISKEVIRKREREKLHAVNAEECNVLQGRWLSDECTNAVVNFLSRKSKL
# [7] = target: cysteines in MDA-MB-231 and Ramos cells (Homo sapiens, UniProt P04406)
# Sequence of cysteines in MDA-MB-231 and Ramos cells (Homo sapiens, UniProt P04406) (P04406 whole entry): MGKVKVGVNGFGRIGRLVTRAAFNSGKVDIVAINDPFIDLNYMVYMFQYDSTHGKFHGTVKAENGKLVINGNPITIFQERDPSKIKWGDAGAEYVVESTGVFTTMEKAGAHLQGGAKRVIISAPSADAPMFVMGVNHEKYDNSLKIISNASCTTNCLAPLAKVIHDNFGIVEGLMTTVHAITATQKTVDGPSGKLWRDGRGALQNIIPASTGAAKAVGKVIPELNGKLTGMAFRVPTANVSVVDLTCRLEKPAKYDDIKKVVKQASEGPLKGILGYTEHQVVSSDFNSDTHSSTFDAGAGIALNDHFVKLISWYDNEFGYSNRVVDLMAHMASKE
# [8] = target: T7, cysteines in MDA-MB-231 and Ramos cells (Homo sapiens, UniProt Q9NS86)
# T7 sequence (Q9NS86 1-450): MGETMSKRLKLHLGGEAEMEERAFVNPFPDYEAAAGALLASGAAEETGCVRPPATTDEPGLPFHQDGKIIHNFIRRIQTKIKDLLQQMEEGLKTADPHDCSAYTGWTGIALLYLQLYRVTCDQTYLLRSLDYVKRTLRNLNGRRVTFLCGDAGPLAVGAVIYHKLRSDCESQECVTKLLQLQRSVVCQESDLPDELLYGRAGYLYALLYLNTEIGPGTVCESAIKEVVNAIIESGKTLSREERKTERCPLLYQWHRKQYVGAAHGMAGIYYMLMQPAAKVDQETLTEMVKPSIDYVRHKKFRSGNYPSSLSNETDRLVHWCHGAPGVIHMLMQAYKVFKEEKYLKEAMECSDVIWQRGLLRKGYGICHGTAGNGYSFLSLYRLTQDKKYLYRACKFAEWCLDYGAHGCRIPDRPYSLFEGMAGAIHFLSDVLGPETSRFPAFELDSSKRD
isoTOP-ABPP ratio P22307_C71 [1],"isoTOP-ABPP ratio, cysteine P22307_C307 [1]",isoTOP-ABPP ratio Q13155_C23 [2],isoTOP-ABPP ratio Q13155_C291 [2],isoTOP-ABPP ratio P42765_C92 [3],isoTOP-ABPP ratio Q86SX6_C67 [4],isoTOP-ABPP ratio A6NDU8_C179 [5],isoTOP-ABPP ratio O75521_C312 [6],isoTOP-ABPP ratio O75521_C380 [6],isoTOP-ABPP ratio P04406_C152 [7],isoTOP-ABPP ratio Q9NS86_C187 [8],isoTOP-ABPP ratio P22307_C307 [1],isoTOP-ABPP ratio P22307_C94 [1],Compound
8.3,20.0,0.9,0.8,1.3,1.4,0.9,1.6,1.8,1.3,0.9,,,O=C(CCl)NC12CC3CC(CC(C3)C1)C2 [compound 21]
20.0,,0.7,0.7,1.2,1.5,0.7,1.1,1.6,0.5,0.4,,,CC(C)CCOCCNC(=O)CCl [compound 27]
1.2,,,0.7,1.1,1.0,0.6,,1.1,0.6,0.6,1.1,,Cc1ccc(C=C(C#N)C(=O)NCCN2CCOCC2)cc1 [compound 41]
16.8,,4.4,7.3,15.1,9.1,20.0,0.7,1.2,20.0,3.1,,20.0,CC1CCc2ccccc2N1C(=O)CCl (centres unmarked) [compound 45]
